# Experimental data as given in patent US11752132B2, “Materials and methods for improving gastrointestinal function” (University of Florida Research Foundation, Incorporated, priority 2010, dated 2023).
# What was measured:
# [1] = tested on: mice with injury to small intestine mucosa; assay: Oral administration of candidate nutrients in radiation, chemotherapy and Crohn's disease models; conditions: for survival: oral feeding of an irradiated subject; for effect of oral administration on small intestine healing, paracellular conductance, electrolyte absorption, survival: radiation, chemotherapy and Crohn's disease models, each amino acid
# Description: In a Crohn's disease model, mice are injected with anti-CD3 mAb (acute inflammatory model to mimic conditions of Crohn's disease).
# The alterations of absorptive capacity of nutrients are determined using disease models with injury to small intestine mucosa, i.e., the radiation model, chemotherapy model, and the Crohn's disease model. Specifically, a candidate nutrient is orally administered to control mice and mice that received irradiation, chemotherapy, and anti-CD3 mAb, respectively. In addition, compositions containing various combinations of the candidate nutrients are orally administered.
# To determine the absorptive capacity of each nutrient, bioelectric measurements are performed using an Ussing chamber. The measurements include: a) the sodium coupled-amino acid current (ISC) and changes in conductance, b) changes in saturation kinetics of each nutrient and changes in the ISC following the administration of each nutrient; and c) the electrolyte absorption studies using isotope flux studies in the presence and absence of the specific candidate nutrient.
# [2] = tested on: small intestine mucosa; assay: Ussing chamber isotope flux studies, unidirectional and net flux of Na^+ and Cl^−; format: in vitro ADME, mice; design: key to Na Flux Jms / Na Flux Jsm / Na Flux Jnet: fluxes in μmol·h^−1·cm^−2
# Description: Following exsanguinations, jejunal segment was obtained by excluding the distal 12 cm of small intestine adjacent to the caecum. This segment was washed and flushed in ice-cold Ringer's solution before the mucosa was stripped from the underlying muscular layers (Zhang, Ameen et al. 2007). The mucosa was mounted between the 2 halves of an Ussing-type Lucite chamber with an area of 0.30 cm^2 (P2304, Physiologic instruments, San Diego, Calif. 92128 USA), and electrical parameters were recorded using a voltage/current clamp device (VCC MC-8, Physiologic instruments, San Diego, Calif. 92128 USA) (Vidyasagar et al. 2005; Vidyasagar et al. 2004; Zhang et al. 2007; Vidyasagar and Ramakrishna 2002).
# Irradiation decreases Jms in a dose-dependent manner, and results in decreased net Na^+ absorption (JNetNa). Jsm far exceeds Jms at doses 7 and 9 Gy, causing net secretion. In addition, mice stool samples became loose or poorly formed at high dose irradiation, further evidencing decreased absorption and increased secretion of electrolytes. […] Decrease in Cl^− absorption was due to decrease in JmsCl^−.
# In this Example, isotope (^22Na and ^36Cl) substitution studies are performed to determine the basal Na^+ and Cl^− movement. Briefly, ^22Na and ^36Cl are added either to the mucosal or to the serosal side. 0.5 ml samples are collected from the cold side at the end of every 30 minutes. Unidirectional fluxes are calculated using standard formula, and expressed as μmol·h^−1·cm^−2. Net flux (JNet) is calculated as the difference between Jms and Jsm fluxes across tissue pairs. Experiments are performed under short-circuit conditions.
smiles,measurement,setting,value
N[C@@H](CO)C(=O)O [serine],survival,[1],prolongs survival
same,"effect of oral administration on small intestine healing, paracellular conductance, electrolyte absorption, survival",[1],"improve small intestine healing, reduces paracellular conductance (thereby improving small intestine mucosal barrier mechanism), increases absorption of electrolytes, and/or improves survival in animals"
N[C@@H](Cc1c[nH]c2ccccc12)C(=O)O [tryptophan],survival,[1],prolongs survival
same,"effect of oral administration on small intestine healing, paracellular conductance, electrolyte absorption, survival",[1],"improve small intestine healing, reduces paracellular conductance (thereby improving small intestine mucosal barrier mechanism), increases absorption of electrolytes, and/or improves survival in animals"
N[C@@H](CC(=O)O)C(=O)O [aspartic acid],survival,[1],prolongs survival
same,"effect of oral administration on small intestine healing, paracellular conductance, electrolyte absorption, survival",[1],"improve small intestine healing, reduces paracellular conductance (thereby improving small intestine mucosal barrier mechanism), increases absorption of electrolytes, and/or improves survival in animals"
CC[C@H](C)[C@H](N)C(=O)O [isoleucine],survival,[1],prolongs survival
same,"effect of oral administration on small intestine healing, paracellular conductance, electrolyte absorption, survival",[1],"improve small intestine healing, reduces paracellular conductance (thereby improving small intestine mucosal barrier mechanism), increases absorption of electrolytes, and/or improves survival in animals"
NC(=O)C[C@H](N)C(=O)O [asparagine],survival,[1],prolongs survival
same,"effect of oral administration on small intestine healing, paracellular conductance, electrolyte absorption, survival",[1],"improve small intestine healing, reduces paracellular conductance (thereby improving small intestine mucosal barrier mechanism), increases absorption of electrolytes, and/or improves survival in animals"
Cl [Cl^−],Cl Flux Jms,[2]; IR 0 Gy,17.3 ± 1.1
same,Cl Flux Jnet,[2]; IR 0 Gy,10.2 ± 0.8
same,Cl Flux Jsm,[2]; IR 0 Gy,7.1 ± 0.6
same,Cl Flux Jms,[2]; IR 1 Gy,12.8 ± 0.9
same,Cl Flux Jnet,[2]; IR 1 Gy,5.2 ± 0.9
same,Cl Flux Jsm,[2]; IR 1 Gy,7.6 ± 1.3
same,Cl Flux Jms,[2]; IR 3 Gy,16.8 ± 0.7
same,Cl Flux Jnet,[2]; IR 3 Gy,7.5 ± 0.8
same,Cl Flux Jsm,[2]; IR 3 Gy,9.3 ± 0.8
same,Cl Flux Jms,[2]; IR 5 Gy,14.2 ± 1.2
same,Cl Flux Jnet,[2]; IR 5 Gy,3.9 ± 0.7
same,Cl Flux Jsm,[2]; IR 5 Gy,10.3 ± 0.9
same,Cl Flux Jms,[2]; IR 7 Gy,7.1 ± 0.5
same,Cl Flux Jnet,[2]; IR 7 Gy,0.3 ± 0.2
same,Cl Flux Jsm,[2]; IR 7 Gy,6.9 ± 0.3
same,Cl Flux Jms,[2]; IR 9 Gy,−9.2 ± 0.8
same,Cl Flux Jnet,[2]; IR 9 Gy,−9.3 ± 0.9
same,Cl Flux Jsm,[2]; IR 9 Gy,0.1 ± 0.1
NCC(=O)O [glycine],survival,[1],prolongs survival
same,"effect of oral administration on small intestine healing, paracellular conductance, electrolyte absorption, survival",[1],"improve small intestine healing, reduces paracellular conductance (thereby improving small intestine mucosal barrier mechanism), increases absorption of electrolytes, and/or improves survival in animals"
N[C@@H](Cc1ccc(O)cc1)C(=O)O [tyrosine],survival,[1],prolongs survival
same,"effect of oral administration on small intestine healing, paracellular conductance, electrolyte absorption, survival",[1],"improve small intestine healing, reduces paracellular conductance (thereby improving small intestine mucosal barrier mechanism), increases absorption of electrolytes, and/or improves survival in animals"
[Na+] [Na^+],Na Flux Jms,[2]; IR 0 Gy,16.4 ± 0.9
same,Na Flux Jnet,[2]; IR 0 Gy,9.8 ± 0.8
same,Na Flux Jsm,[2]; IR 0 Gy,7.1 ± 0.8
same,Na Flux Jms,[2]; IR 1 Gy,15.6 ± 1
same,Na Flux Jnet,[2]; IR 1 Gy,8.6 ± 0.9
same,Na Flux Jsm,[2]; IR 1 Gy,7.1 ± 1.1
same,Na Flux Jms,[2]; IR 3 Gy,6.8 ± 0.7
same,Na Flux Jnet,[2]; IR 3 Gy,2.6 ± 0.5
same,Na Flux Jsm,[2]; IR 3 Gy,3.5 ± 0.3
same,Na Flux Jms,[2]; IR 5 Gy,5.2 ± 0.6
same,Na Flux Jnet,[2]; IR 5 Gy,0.4 ± 0.2
same,Na Flux Jsm,[2]; IR 5 Gy,4.8 ± 0.4
same,Na Flux Jms,[2]; IR 7 Gy,4.8 ± 0.4
same,Na Flux Jnet,[2]; IR 7 Gy,−0.6 ± 0.3
same,Na Flux Jsm,[2]; IR 7 Gy,5.4 ± 0.4
same,Na Flux Jms,[2]; IR 9 Gy,4.3 ± 0.7
same,Na Flux Jnet,[2]; IR 9 Gy,−0.4 ± 0.2
same,Na Flux Jsm,[2]; IR 9 Gy,4.7 ± 0.6
CC(C)[C@H](N)C(=O)O [valine],survival,[1],prolongs survival
same,"effect of oral administration on small intestine healing, paracellular conductance, electrolyte absorption, survival",[1],"improve small intestine healing, reduces paracellular conductance (thereby improving small intestine mucosal barrier mechanism), increases absorption of electrolytes, and/or improves survival in animals"
